Three compounds from ChEMBL document CHEMBL5532696, “Discovery of new tricyclic spiroindole derivatives as potent P-glycoprotein inhibitors for reversing multidrug resistance enabled by a synthetic methodology-based library” (RSC Med Chem, 2024) can be followed below.

Activity calls are given as the source filed them. The calls are words filed in the database; no cut-off is given here.

Assay [1] concerns Eca-109/VCR. Nature of the assay: Antiproliferative activity against human Eca-109/VCR cells assessed as reduction in cell viability at 10 uM incubated for 48 hrs by CCK-8 assay. In kind it is functional, cell-based. Background: Tetrazolium assays rely on reduction of a dye to a coloured formazan, in cell work by metabolically active cells.
In assay [2] the test system is Eca-109/VCR. Nature of the assay: Antiproliferative activity against human Eca-109/VCR cells assessed as cell viability at 5 uM incubated for 48 hrs by CCK-8 assay (reference value: 100 +/- 1.8%). Conditions: read-out: Activity. In kind it is functional.
The test system of assay [3] is Eca-109/VCR. In words: Reversal of vincristine resistance in human Eca-109/VCR cells assessed as reversal fold by measuring ratio of vincristine IC50 to vincristine IC50 in presence of test compound at 5 uM incubated for 48 hrs by CCK8 assay. Type of assay: functional.
Assay [4] deals with Eca-109/VCR. In words: Induction of apoptosis in human Eca-109/VCR cells assessed as early apoptotic cells at 1 uM incubated for 48 hrs by Annexin V-FITC/DAPI staining based flow cytometry analysis (reference value: 0.97 %). In kind it is functional. (In general: Flow cytometry measures light scatter and fluorescence of single cells or particles in a stream.)
Assay [5] concerns Eca-109/VCR. Nature of the assay: Induction of apoptosis in human Eca-109/VCR cells assessed as early apoptotic cells at 5 uM incubated for 48 hrs in presence of vincristine at 50 nM by Annexin V-FITC/DAPI staining based flow cytometry analysis (reference value: 1.33 %). In kind it is functional.
Assay [6] has as its system Eca-109/VCR. Nature of the assay: Induction of apoptosis in human Eca-109/VCR cells assessed as viable cells at 1 uM incubated for 48 hrs in presence of vincristine at 50 nM by Annexin V-FITC/DAPI staining based flow cytometry analysis (reference value: 93.5 %). Type of assay: functional. Conditions: read-out: Activity.
Assay [7] is described as follows: Reversal of vincristine resistant in human Eca-109/VCR cells assessed as reversal fold by measuring ratio of mitoxantrone IC50 to mitoxantrone IC50 in presence of test compound at 5 uM incubated for 48 hrs by CCK8 assay. In kind it is functional.
Assay [8] has as its system Eca-109/VCR. Nature of the assay: Induction of apoptosis in human Eca-109/VCR cells assessed as late apoptotic cells at 5 uM incubated for 48 hrs by Annexin V-FITC/DAPI staining based flow cytometry analysis (reference value: 4.31 %). Type of assay: functional.
Assay [9] has as its system Eca-109/VCR. In words: Induction of apoptosis in human Eca-109/VCR cells assessed as late apoptotic cells at 1 uM incubated for 48 hrs by Annexin V-FITC/DAPI staining based flow cytometry analysis (reference value: 4.31 %). Type of assay: functional.
For assay [10], the system named is Eca-109/VCR. In words: Induction of apoptosis in human Eca-109/VCR cells assessed as viable cells at 5 uM incubated for 48 hrs by Annexin V-FITC/DAPI staining based flow cytometry analysis (reference value: 94.6 %). Type of assay: functional. Conditions: read-out: Activity.
In assay [11] the test system is Eca-109/VCR. In words: Reversal of vincristine resistance in human Eca-109/VCR cells assessed as effect on P-gp protein expression at 5 to 10 uM incubated for 24 hrs by Western blotting analysis. Conditions: dose 5-10 µM. Type of assay: functional, cell-based. For orientation: Immunoblotting shows a protein as a band on a membrane.
Assay [12] deals with Eca-109/VCR. Nature of the assay: Effect on ABCG2 protein expression in human Eca-109/VCR cells at 5 to 10 uM incubated for 24 hrs by Western blotting analysis. Type of assay: functional, cell-based. The settings on record: dose 5-10 µM.
For assay [13], the system named is Eca-109/VCR. In words: Induction of apoptosis in human Eca-109/VCR cells assessed as necrotic cells at 1 uM incubated for 48 hrs by Annexin V-FITC/DAPI staining based flow cytometry analysis (reference value: 0.073 %). In kind it is functional.
The test system of assay [14] is Eca-109/VCR. Nature of the assay: Inhibition of colony formation in human Eca-109/VCR cells at 0 to 2 uM incubated for 48 hrs by crystal violet staining based assay. Type of assay: functional, cell-based. The settings on record: dose 0-2 µM.
Assay [15] relates to Eca-109/VCR. Nature of the assay: Induction of apoptosis in human Eca-109/VCR cells assessed as viable cells at 1 uM incubated for 48 hrs by Annexin V-FITC/DAPI staining based flow cytometry analysis (reference value: 94.6 %). Type of assay: functional. Conditions: read-out: Activity.
The test system of assay [16] is Eca-109/VCR. Nature of the assay: Induction of apoptosis in human Eca-109/VCR cells assessed as early apoptotic cells at 5 uM incubated for 48 hrs by Annexin V-FITC/DAPI staining based flow cytometry analysis (reference value: 0.97 %). Type of assay: functional.
The test system of assay [17] is Eca-109/VCR. Nature of the assay: Induction of apoptosis in human Eca-109/VCR cells assessed as necrotic cells at 5 uM incubated for 48 hrs in presence of vincristine at 50 nM by Annexin V-FITC/DAPI staining based flow cytometry analysis (reference value: 0.062 %). In kind it is functional.
The subject of assay [18] is Eca-109/VCR. Nature of the assay: Effect on MRP1 protein expression in human Eca-109/VCR cells at 5 to 10 uM incubated for 24 hrs by Western blotting analysis. Type of assay: functional, cell-based. The settings on record: dose 5-10 µM.
The test system of assay [19] is Eca-109/VCR. In words: Inhibition of colony formation in human Eca-109/VCR cells assessed as reduction in number of colonies incubated for 48 hrs in presence of vincristine by crystal violet staining based assay. Type of assay: functional, cell-based. The settings on record: dose 0-2 µM.
Assay [20] relates to Eca-109/VCR. Nature of the assay: Induction of apoptosis in human Eca-109/VCR cells assessed as viable cells at 5 uM incubated for 48 hrs in presence of vincristine at 50 nM by Annexin V-FITC/DAPI staining based flow cytometry analysis (reference value: 93.5 %). In kind it is functional. Conditions: read-out: Activity.
For assay [21], the system named is Eca-109/VCR. Nature of the assay: Induction of apoptosis in human Eca-109/VCR cells assessed as late apoptotic cells at 1 uM incubated for 48 hrs in presence of vincristine at 50 nM by Annexin V-FITC/DAPI staining based flow cytometry analysis (reference value: 5.06 %). In kind it is functional.
Assay [22] concerns Eca-109/VCR. In words: Induction of apoptosis in human Eca-109/VCR cells assessed as late apoptotic cells at 5 uM incubated for 48 hrs in presence of vincristine at 50 nM by Annexin V-FITC/DAPI staining based flow cytometry analysis (reference value: 5.06 %). Type of assay: functional.
Assay [23] in a line: Reversal of vincristine resistant in human Eca-109/VCR cells assessed as reversal fold by measuring ratio of docetaxel IC50 to docetaxel IC50 in presence of test compound at 5 uM incubated for 48 hrs by CCK8 assay. In kind it is functional.
A short description of assay [24]: Reversal of vincristine resistant in human Eca-109/VCR cells assessed as reversal fold by measuring ratio of lapatinib IC50 to lapatinib IC50 in presence of test compound at 5 uM incubated for 48 hrs by CCK8 assay. In kind it is functional.
For assay [25], the system named is Eca-109/VCR. Nature of the assay: Induction of apoptosis in human Eca-109/VCR cells assessed as necrotic cells at 5 uM incubated for 48 hrs by Annexin V-FITC/DAPI staining based flow cytometry analysis (reference value: 0.073 %). Type of assay: functional.
Assay [26] deals with Eca-109/VCR. In words: Induction of apoptosis in human Eca-109/VCR cells assessed as early apoptotic cells at 1 uM incubated for 48 hrs in presence of vincristine at 50 nM by Annexin V-FITC/DAPI staining based flow cytometry analysis (reference value: 1.33 %). Type of assay: functional.
Assay [27] in a line: Reversal of vincristine resistant in human Eca-109/VCR cells assessed as reversal fold by measuring ratio of colchicine IC50 to colchicine IC50 in presence of test compound at 5 uM incubated for 48 hrs by CCK8 assay. In kind it is functional.
Assay [28] deals with Eca-109/VCR. Nature of the assay: Induction of apoptosis in human Eca-109/VCR cells assessed as necrotic cells at 1 uM incubated for 48 hrs in presence of vincristine at 50 nM by Annexin V-FITC/DAPI staining based flow cytometry analysis (reference value: 0.062 %). Type of assay: functional.
Assay [29] in a line: Reversal of vincristine resistant in human Eca-109/VCR cells assessed as reversal fold by measuring ratio of doxorubicin IC50 to doxorubicin IC50 in presence of test compound at 5 uM incubated for 48 hrs by CCK8 assay. Type of assay: functional.
Assay [30] has as its system Eca-109/VCR. In words: Inhibition of colony formation in human Eca-109/VCR cells at 0 to 12 nM incubated for 48 hrs by crystal violet staining based assay. Conditions: dose 0-12 nM. In kind it is functional, cell-based.

Take `CN1C(=O)[C@@]2(c3cc(Cl)ccc31)[C@H](c1ccccc1)[C@H]1C(=O)c3cc([N+](=O)[O-])ccc3[C@H]1[C@@H]2C(=O)NC(C)(C)C`: in the assay on Eca-109/VCR [1], the outcome was inactive. In addition, in the assay on Eca-109/VCR [2], the viability at 5 µM was 96.7%. In addition, the “Ratio IC50” value with Eca-109/VCR [3] worked out at 471.3.
Regarding `CN1C(=O)[C@@]2(c3cc(Cl)ccc31)[C@H](C(=O)NC(C)(C)C)[C@H]1c3ccc([N+](=O)[O-])cc3C(=O)[C@H]1[C@@H]2c1ccccc1`, the Activity worked out at 1.27% in the assay with Eca-109/VCR [4]; 17.9% in the assay on Eca-109/VCR [5]; 4.19% in the assay with Eca-109/VCR [8]; 4.73% in the assay with Eca-109/VCR [9]; 0.082% in the assay on Eca-109/VCR [13]; 1.19% with Eca-109/VCR [16]. In addition, the Activity with Eca-109/VCR [17] is listed as 0.31%; with Eca-109/VCR [21] it was 7.54%; in the assay with Eca-109/VCR [22], 4.28%; in the assay on Eca-109/VCR [25], 0.064%; in the assay with Eca-109/VCR [26], 0.99%; in the assay on Eca-109/VCR [28], 0.15%. In addition, the values for the viability at 1 µM in the assay on Eca-109/VCR [6] and in the assay on Eca-109/VCR [15] were 91.3% and 93.9%, respectively. Also, the outcome in the assay on Eca-109/VCR [1], with Eca-109/VCR [11], in the assay with Eca-109/VCR [12] and with Eca-109/VCR [18] was inactive. Besides, the “Ratio IC50” value in assay [7] is recorded as 12; in assay [23], 313.8; in [24], 1.4; in assay [27], 139.7; with Eca-109/VCR [3], 727.2; in assay [29], 121. Moreover, the viability at 5 µM in the assay on Eca-109/VCR [10] is 94.6%; in the assay with Eca-109/VCR [20] it was 77.5%; in the assay with Eca-109/VCR [2] it was 98.9%. In addition, the inhibition result in the assay with Eca-109/VCR [14] is “inactive”. For the same compound, in the assay with Eca-109/VCR [19], the inhibition result was “Dose-Dependent Effect”.
For `CC[C@]1(O)C[C@H]2CN(CCc3c([nH]c4ccccc34)[C@@](C(=O)OC)(c3cc4c(cc3OC)N(C=O)[C@H]3[C@@](O)(C(=O)OC)[C@H](OC(C)=O)[C@]5(CC)C=CCN6CC[C@]43[C@@H]65)C2)C1`, in the assay with Eca-109/VCR [30], the inhibition result was “inactive”.
